Results as given in PubChem BioAssay (NCI).
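All cell lines were grown in 96-well plates and treated with compound for 48 hours. TGI: concentration producing complete growth inhibition.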 *1 amine or outer side, *2 acyl side, *3 side chain or, on linkers, in order; H or OH if unused. Where a SMILES comes first, the peptide text is derived from it. [ ]: non-standard residue; d: D form. The star is where a group is joined. X31 = CC(=O)N(C)SCC(N[*:1])C(=O)[*:2]; Cbz = O=C(OCc1ccccc1)*; Bn = c1ccc(C*)cc1

How the values were obtained:
Assay in all cases: growth of human tumour cells (NCI), 48 h
[1] = test system: MDA-MB-435
[2] = test system: SN12C renal
[3] = test system: DU-145 prostate
[4] = test system: SW-620 colon
[5] = test system: MDA-N
[6] = test system: SF-268 CNS
[7] = test system: PC-3 prostate
[8] = test system: MOLT-4 leukemia
[9] = test system: SK-MEL-5 melanoma
[10] = test system: CCRF-CEM leukemia
[11] = test system: RXF 393 renal
[12] = test system: HCC-2998 colon
[13] = test system: OVCAR-8 ovarian
[14] = test system: BT-549 breast
[15] = test system: MALME-3M melanoma
[16] = test system: SNB-19 CNS
[17] = test system: NCI-H226 lung
[18] = test system: T-47D breast
[19] = test system: HOP-92 NSCLC
[20] = test system: MCF7 breast
[21] = test system: U251 CNS
[22] = test system: SK-MEL-28 melanoma
[23] = test system: UACC-257 melanoma
[24] = test system: SF-539 CNS
[25] = test system: TK-10 renal
[26] = test system: OVCAR-5 ovarian
[27] = test system: SNB-75 CNS
[28] = test system: HOP-62 NSCLC
[29] = test system: SK-OV-3 ovarian
[30] = test system: MDA-MB-231 breast
[31] = test system: K-562 leukemia
[32] = test system: M14 melanoma
[33] = test system: IGROV1 ovarian
[34] = test system: HT29 colon
[35] = test system: ACHN renal
[36] = test system: COLO 205 colon
[37] = test system: HL-60(TB) leukemia
[38] = test system: HCT-116 colon
[39] = test system: NCI/ADR-RES ovarian
[40] = test system: 786-0 renal
[41] = test system: OVCAR-4 ovarian
[42] = test system: SR leukemia
[43] = test system: RPMI-8226 leukemia
[44] = test system: SK-MEL-2 melanoma
[45] = test system: OVCAR-3 ovarian
[46] = test system: UACC-62 melanoma
[47] = test system: NCI-H23 lung
[48] = test system: NCI-H460 lung
[49] = test system: SF-295 CNS
[50] = test system: LOX IMVI melanoma
[51] = test system: KM12 colon
[52] = test system: A549 NSCLC
[53] = test system: UO-31 renal
[54] = test system: HCT-15 colon
[55] = test system: EKVX NSCLC
[56] = test system: HS 578T breast

Measured: TGI

CC(=O)N(C)SCC(NC(=O)C(Cc1ccccc1)NC(=O)OCc1ccccc1)C(=O)NC(Cc1ccccc1)C(=O)NC(Cc1c[nH]c2ccccc12)C(=O)NC(CCCCNC(=O)OCc1ccccc1)C(=O)NC(C(=O)NC(CSN(C)C(C)=O)C(=O)NC(C(N)=O)C(C)OCc1ccccc1)C(C)OCc1ccccc1 (stereo unspecified) (Cbz-F[X31]FWK(Cbz)T(Bn)[X31]T(Bn)-NH2; configuration not given here)
> 100 µM: all assays above
